Reference: patent US20220281831A1, “FUSED-GLUTARIMIDE CRBN LIGANDS AND USES THEREOF” (Kymera Therapeutics, Inc., priority 2019, published 2022)

Legend:
CRBN-DDB1 = CRBN-DDB1 (Homo sapiens, UniProt Q96SW2); experiment: Fluorescence Polarization (FP) CRBN binding assay, probe TM-493 (FAM-BB-100); details: CRBN-DDB1, TM-493 probe, 60 min room temperature
Method: Fluorescence Polarization (FP) Assay
Materials: PerkinElmer EnVision 2104 Multilabel Reader, PerkinElmer FITC FP dual emission Label 2100-8060, Corning 384-well microplate #4514, V-CMR-TM-493 (FAM-BB-100), and CRBN-DDB1-180605.
Methods: Dilution buffer (50 mM HEPES-Na pH 7.5, 100 mM NaCl, 2 mM DTT, and 0.005% Tween-20) and compound DMSO dilutions were prepared. 4× compound working solutions were made with 8% DMSO (4×) and 13.8 μL/well of dilution buffer was placed in a new 96-well plate and 1.2 μL/well of above compound DMSO dilutions were added to the wells. 40 nM (4×) TM-493 in dilution buffer was prepared from a 10 μM DMSO stock and 15 μL per well of the TM-493 working solution was transferred into the compound working solution. 160 nM (2×) CRBN-DDB1 working solution was prepared with Dilution Buffer and 10 μL/well were added into a 384-well plate. 10 μL per well of the TM-493/compound mixture were transferred into the 384-well plate. The “positive control” was sample without protein and compound in 2% DMSO. After incubation at room temperature for 60 min, data was collected and read on data on an EnVision with the following setting: Excitation Light (%): 100; Measurement Height: 9.4; G-Factor: 1; Detector Gain 1: 200; Detector Gain 2: 200; Flash Number: 100. Data was processed using GraphPad Prism 7.0
The compound numbers correspond to the compound numbers in Table 1.

[1] = biological target: His-tagged CRBN-DDB1 complex (Homo sapiens, UniProt Q96SW2); experiment: Time-Resolved Fluorescence Resonance Energy Transfer (TR-FRET / HTRF) CRBN binding assay, displacement of Cy5-labeled thalidomide; details: His-CRBN-DDB1, Cy5-thalidomide 8 nM, 1 hour room temperature
Chain of His-tagged CRBN-DDB1 complex (Q96SW2 whole entry): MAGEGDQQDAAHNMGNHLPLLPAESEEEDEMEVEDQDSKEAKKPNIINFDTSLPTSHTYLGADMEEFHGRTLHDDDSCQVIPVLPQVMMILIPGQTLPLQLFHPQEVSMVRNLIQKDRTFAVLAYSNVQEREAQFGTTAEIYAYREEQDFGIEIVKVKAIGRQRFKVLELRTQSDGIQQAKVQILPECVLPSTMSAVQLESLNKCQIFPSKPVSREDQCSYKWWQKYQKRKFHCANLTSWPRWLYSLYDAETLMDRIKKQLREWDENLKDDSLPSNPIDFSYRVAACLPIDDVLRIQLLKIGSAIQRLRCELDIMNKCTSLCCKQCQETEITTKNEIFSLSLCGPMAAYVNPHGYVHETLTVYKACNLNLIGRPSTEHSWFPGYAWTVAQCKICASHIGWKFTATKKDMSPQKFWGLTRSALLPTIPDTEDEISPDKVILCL
Chain of His-tagged CRBN-DDB1 complex (Q16531 whole entry partner): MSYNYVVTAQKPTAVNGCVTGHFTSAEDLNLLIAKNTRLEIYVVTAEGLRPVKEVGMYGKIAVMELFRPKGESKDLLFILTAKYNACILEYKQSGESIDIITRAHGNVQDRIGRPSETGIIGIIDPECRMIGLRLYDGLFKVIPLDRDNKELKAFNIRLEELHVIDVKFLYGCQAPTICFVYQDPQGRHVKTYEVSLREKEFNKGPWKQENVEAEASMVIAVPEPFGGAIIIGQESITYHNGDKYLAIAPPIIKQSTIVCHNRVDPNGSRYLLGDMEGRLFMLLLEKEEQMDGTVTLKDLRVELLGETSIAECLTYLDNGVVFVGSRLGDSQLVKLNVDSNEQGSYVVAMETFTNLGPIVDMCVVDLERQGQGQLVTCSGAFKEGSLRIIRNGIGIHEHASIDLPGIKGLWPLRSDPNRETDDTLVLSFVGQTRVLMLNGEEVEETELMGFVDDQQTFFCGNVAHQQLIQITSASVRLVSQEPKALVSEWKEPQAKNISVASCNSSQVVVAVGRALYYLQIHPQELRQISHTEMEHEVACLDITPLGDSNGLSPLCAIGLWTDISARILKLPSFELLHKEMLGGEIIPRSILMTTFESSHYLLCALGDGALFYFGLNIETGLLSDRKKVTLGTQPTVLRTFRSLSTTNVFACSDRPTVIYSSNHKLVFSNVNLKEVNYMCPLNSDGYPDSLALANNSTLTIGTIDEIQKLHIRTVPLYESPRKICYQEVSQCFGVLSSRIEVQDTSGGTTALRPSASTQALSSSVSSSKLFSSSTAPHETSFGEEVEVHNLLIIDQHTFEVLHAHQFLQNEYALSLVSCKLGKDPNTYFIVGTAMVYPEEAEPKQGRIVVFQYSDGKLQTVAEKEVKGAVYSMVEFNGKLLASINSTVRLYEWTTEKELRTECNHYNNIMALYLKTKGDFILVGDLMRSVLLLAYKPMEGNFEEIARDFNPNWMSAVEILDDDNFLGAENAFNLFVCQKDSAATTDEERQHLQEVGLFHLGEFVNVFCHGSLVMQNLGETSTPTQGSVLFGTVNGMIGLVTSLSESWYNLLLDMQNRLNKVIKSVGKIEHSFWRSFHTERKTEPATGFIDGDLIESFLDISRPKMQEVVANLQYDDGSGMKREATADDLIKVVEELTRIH

Chain of CRBN-DDB1 (Q96SW2 whole entry): as the sequence (Q96SW2 whole entry) above
Chain of CRBN-DDB1 (Q16531 whole entry partner): as the sequence (Q16531 whole entry partner) above

O=C1Cc2nccc(Oc3ccccc3)c2C(=O)N1 [Compound I-236]
IC50 (CRBN-DDB1): > 100 µM | IC50 [1]: > 100 µM

O=C1NC(=O)[C@@H]2CN(C3CCCC3)C[C@H]12 [Compound I-159]
IC50 (CRBN-DDB1): > 100 µM | IC50 [1]: > 100 µM

O=C1C[C@]2(CCc3c([N+](=O)[O-])cccc32)C(=O)N1 [Compound I-196]
IC50 (CRBN-DDB1): > 100 µM | IC50 [1]: > 100 µM

O=C1Cc2cccc(Oc3ccccc3)c2C(=O)N1 [Compound I-26, 8-phenoxy-2,4-dihydroisoquinoline-1,3-dione]
IC50 (CRBN-DDB1): < 10 µM | IC50 [1]: < 10 µM

COc1cc(F)ccc1N1C[C@@H]2C(=O)NC(=O)[C@@H]2C1 [Compound I-124]
IC50 (CRBN-DDB1): > 100 µM | IC50 [1]: 30 to 100 µM

Cc1cccc2c1CC(=O)NC2=O [Compound I-78]
IC50 (CRBN-DDB1): > 100 µM | IC50 [1]: 10 to 30 µM

CC(C)(C)OC(=O)NCCCCCCCc1ccc(Oc2cccc3c2C(=O)NC(=O)C3)cc1 [Compound I-231]
IC50 (CRBN-DDB1): > 100 µM | IC50 [1]: > 100 µM

O=C1Cc2cccc(N3CCCCC3=O)c2C(=O)N1 [Compound I-193]
IC50 (CRBN-DDB1): 30 to 100 µM | IC50 [1]: 10 to 30 µM

NCCCC#Cc1ccc(Oc2cccc3c2C(=O)NC(=O)C3)cc1 [Compound I-265]
IC50 (CRBN-DDB1): < 10 µM | IC50 [1]: < 10 µM

O=C1Cc2cncc(Oc3ccccc3)c2C(=O)N1 [Compound I-235]
IC50 (CRBN-DDB1): 10 to 30 µM | IC50 [1]: < 10 µM

O=C1CC2(Cc3ccccc3C2)C(=O)N1 [Compound I-186, 1,3-dihydrospiro[indene-2,3′-pyrrolidine]-2′,5′-dione]
IC50 (CRBN-DDB1): > 100 µM | IC50 [1]: 30 to 100 µM

O=C1Cc2cccc(Oc3cccc(F)c3)c2C(=O)N1 [Compound I-198, 8-(3-Fluorophenoxy)-2,4-dihydroisoquinoline-1,3-dione]
IC50 (CRBN-DDB1): 10 to 30 µM | IC50 [1]: < 10 µM

O=C1Cc2cc(F)ccc2C(=O)N1 [Compound I-73, 6-Fluoro-2,4-dihydroisoquinoline-1,3-dione]
IC50 (CRBN-DDB1): > 100 µM | IC50 [1]: 10 to 30 µM

Cc1ncoc1-c1cccc2c1C(=O)NC2=O [Compound I-33, 4-(4-methyl-1,3-oxazol-5-yl)-2H-isoindole-1,3-dione]
IC50 (CRBN-DDB1): > 100 µM | IC50 [1]: > 100 µM

NCC#Cc1cccc(Oc2cccc3c2C(=O)NC(=O)C3)c1 [Compound I-244]
IC50 (CRBN-DDB1): 30 to 100 µM | IC50 [1]: 10 to 30 µM

Cc1cc2c(c(Oc3ccccc3)c1)C(=O)NC(=O)C2 [Compound I-203, 6-Methyl-8-phenoxy-2,4-dihydroisoquinoline-1,3-dione]
IC50 (CRBN-DDB1): < 10 µM | IC50 [1]: < 10 µM

O=C1NC(=O)[C@@H]2CN(c3ccc(Oc4ccccc4)cc3)C[C@H]12 [Compound I-151]
IC50 (CRBN-DDB1): > 100 µM | IC50 [1]: 30 to 100 µM

O=C1Cc2cccc(F)c2C(=O)N1 [Compound I-75, 8-Fluoro-2,4-dihydroisoquinoline-1,3-dione]
IC50 (CRBN-DDB1): 30 to 100 µM | IC50 [1]: 10 to 30 µM

CC(C)(C)OC(=O)NCCCCCC#Cc1cccc(Oc2cccc3c2C(=O)NC(=O)C3)c1 [Compound I-223]
IC50 (CRBN-DDB1): 30 to 100 µM | IC50 [1]: 30 to 100 µM

CN1C(=O)Cc2cccc(Oc3ccccc3)c2C1=O [Compound I-260]
IC50 (CRBN-DDB1): > 100 µM | IC50 [1]: > 100 µM

Nc1ccccc1-c1ccc2c(c1)C(=O)NC(=O)C2 [Compound I-17, 7-(2-aminophenyl)-2,4-dihydroisoquinoline-1,3-dione]
IC50 (CRBN-DDB1): 30 to 100 µM | IC50 [1]: > 100 µM

CC(C)(C)OC(=O)NCCCc1ccc(Oc2cccc3c2C(=O)NC(=O)C3)cc1 [Compound I-227]
IC50 (CRBN-DDB1): > 100 µM | IC50 [1]: < 10 µM

NCCCCCc1cccc(Oc2cccc3c2C(=O)NC(=O)C3)c1 [Compound I-246]
IC50 (CRBN-DDB1): < 10 µM | IC50 [1]: < 10 µM

CCCOc1ccc(N2C[C@@H]3C(=O)NC(=O)[C@@H]3C2)cc1 [Compound I-132]
IC50 (CRBN-DDB1): > 100 µM | IC50 [1]: 30 to 100 µM

O=C1Cc2ccc(Br)cc2C(=O)N1 [Compound I-7, 7-Bromo-2,4-dihydroisoquinoline-1,3-dione]
IC50 (CRBN-DDB1): > 100 µM | IC50 [1]: 30 to 100 µM

CC(C)(C)OC(=O)NCCCCCCCCCc1ccc(Oc2cccc3c2C(=O)NC(=O)C3)cc1 [Compound I-233]
IC50 (CRBN-DDB1): > 100 µM | IC50 [1]: > 100 µM

Cc1cccc(Oc2cccc3c2C(=O)NC(=O)C3)c1 [Compound I-199, 8-(3-Methylphenoxy)-2,4-dihydroisoquinoline-1,3-dione]
IC50 (CRBN-DDB1): 10 to 30 µM | IC50 [1]: < 10 µM

NCCCCCCCC#Cc1cccc(Oc2cccc3c2C(=O)NC(=O)C3)c1 [Compound I-248]
IC50 (CRBN-DDB1): 30 to 100 µM | IC50 [1]: > 100 µM

O=C1Cc2ccccc2C(=O)N1 [Compound I-5, 2,4-Dihydroisoquinoline-1,3-dione]
IC50 (CRBN-DDB1): 30 to 100 µM | IC50 [1]: > 100 µM

O=C1NC(=O)c2c(Oc3cccnc3)cccc2C1=O [Compound I-266]
IC50 (CRBN-DDB1): < 10 µM | IC50 [1]: 10 to 30 µM

NCCCCCC#Cc1cccc(Oc2cccc3c2C(=O)NC(=O)C3)c1 [Compound I-247]
IC50 (CRBN-DDB1): 10 to 30 µM | IC50 [1]: < 10 µM

O=C1Cc2cccc(-n3ccccc3=O)c2C(=O)N1 [Compound I-194]
IC50 (CRBN-DDB1): 30 to 100 µM | IC50 [1]: 10 to 30 µM

NCCCCCCCc1ccc(Oc2cccc3c2C(=O)NC(=O)C3)cc1 [Compound I-250]
IC50 (CRBN-DDB1): < 10 µM | IC50 [1]: < 10 µM

Nc1ccc2c(c1)C(=O)NC(=O)C2 [Compound I-12]
IC50 (CRBN-DDB1): 10 to 30 µM | IC50 [1]: < 10 µM

O=C1Cc2c(F)cccc2C(=O)N1 [Compound I-72, 5-Fluoro-2,4-dihydroisoquinoline-1,3-dione]
IC50 (CRBN-DDB1): > 100 µM | IC50 [1]: 10 to 30 µM

O=C1Cc2cccc(COc3ccccc3)c2C(=O)N1 [Compound I-277]
IC50 (CRBN-DDB1): 10 to 30 µM | IC50 [1]: 10 to 30 µM

O=C1NC(=O)C(F)(F)c2cccc(C(=O)N3CCc4ccccc43)c21 [Compound I-50]
IC50 (CRBN-DDB1): > 100 µM | IC50 [1]: > 100 µM

NC(=O)c1ccccc1-c1cccc2c1C(=O)NC(=O)C2 [Compound I-2, 2-(1,3-Dioxo-2,4-dihydroisoquinolin-8-yl)benzamide]
IC50 (CRBN-DDB1): 30 to 100 µM | IC50 [1]: > 100 µM

CC(=O)NCc1cccc(Oc2cccc3c2C(=O)NC(=O)C3)c1 [Compound I-268]
IC50 (CRBN-DDB1): 10 to 30 µM | IC50 [1]: 30 to 100 µM

O=C1C[C@@]2(CCc3c([N+](=O)[O-])cccc32)C(=O)N1 [Compound I-197]
IC50 (CRBN-DDB1): > 100 µM | IC50 [1]: > 100 µM

O=C1Cc2cccc(Br)c2C(=O)N1 [Compound I-8, 8-Bromo-2,4-dihydroisoquinoline-1,3-dione]
IC50 (CRBN-DDB1): > 100 µM | IC50 [1]: 10 to 30 µM

Cc1ccccc1-c1ccc2c(c1)C(=O)NC(=O)C2 [Compound I-4, 7-(2-Methylphenyl)-2,4-dihydroisoquinoline-1,3-dione]
IC50 (CRBN-DDB1): > 100 µM | IC50 [1]: 30 to 100 µM

CC(C)(C)OC(=O)NCCCCCc1ccc(Oc2cccc3c2C(=O)NC(=O)C3)cc1 [Compound I-229]
IC50 (CRBN-DDB1): > 100 µM | IC50 [1]: > 100 µM

O=C1Cc2cccc(O)c2C(=O)N1 [Compound I-23]
IC50 (CRBN-DDB1): 30 to 100 µM | IC50 [1]: 10 to 30 µM

O=C1Cc2ccnc(Oc3ccccc3)c2C(=O)N1 [Compound I-276]
IC50 (CRBN-DDB1): 30 to 100 µM | IC50 [1]: 30 to 100 µM

CC(C)(C)OC(=O)NCCCCCCCC#Cc1ccc(Oc2cccc3c2C(=O)NC(=O)C3=O)cc1 [Compound I-240]
IC50 (CRBN-DDB1): 10 to 30 µM | IC50 [1]: < 10 µM

Cc1ncoc1-c1ccc2c(c1)C(=O)NC(=O)C2 [Compound I-6, 7-(4-Methyl-1,3-oxazol-5-yl)-2,4-dihydroisoquinoline-1,3-dione]
IC50 (CRBN-DDB1): > 100 µM | IC50 [1]: > 100 µM

O=C1Cc2cccc(NC(=O)c3ccccc3)c2C(=O)N1 [Compound I-62]
IC50 (CRBN-DDB1): 30 to 100 µM | IC50 [1]: < 10 µM

O=C1Cc2cccc(Oc3ccccc3F)c2C(=O)N1 [Compound I-200, 8-(2-Fluorophenoxy)-2,4-dihydroisoquinoline-1,3-dione]
IC50 (CRBN-DDB1): < 10 µM | IC50 [1]: < 10 µM

NCCCCCCCCCc1ccccc1Oc1cccc2c1C(=O)NC(=O)C2 [Compound I-255]
IC50 (CRBN-DDB1): 10 to 30 µM | IC50 [1]: 10 to 30 µM

O=C1Cc2ccc(O)cc2C(=O)N1 [Compound I-19, 7-hydroxy-2,4-dihydroisoquinoline-1,3-dione]
IC50 (CRBN-DDB1): > 100 µM | IC50 [1]: < 10 µM

CC(=O)NCc1cccc(Oc2cccc3c2C(=O)NC(=O)C3=O)c1 [Compound I-267]
IC50 (CRBN-DDB1): < 10 µM | IC50 [1]: 10 to 30 µM
